Results from patent US9113629B2, “4-amino-6-(4-substituted-phenyl)-picolinates and 6-amino-2-(4-substituted-phenyl)-pyrimidine-4-carboxylates and their use as herbicides” (DOW AGROSCIENCES LLC, priority 2013, dated 2015).
Where two headings read alike, the source gives them in different places.

What was measured:
[1] = test system: Key Grass and Sedge Weeds as well as Grass Crops; assay: Post-emergent Test II herbicidal activity (Table 6); assay type: in vivo; conditions: post-emergence, 336 h; for pest or weed control at 70 g/ha: application rate 70 g ai/ha; for pest or weed control at 140 g/ha: application rate 140 g ai/ha
Outline: (§1)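 Foliar application at 187 L/ha to greenhouse-grown seedlings (first or second true leaf); subirrigation thereafter. Visual 0–100% injury at 14 d relative to untreated plants.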

[2] = test system: Key Broadleaf Weed and Crop Species; assay: Post-emergent Test II herbicidal activity (Table 5); assay type: in vivo; conditions: post-emergence, 336 h, post-emergent, 14 days after application; for pest or weed control at 70 g/ha: 70 g ai/ha; for pest or weed control at 140 g/ha: 140 g ai/ha
Outline: as §1

[3] = CYPES: yellow nutsedge (Cyperus esculentus), read-out: Visual Growth Reduction (%) 14 Days After Application, CYPES
[4] = DIGSA: crabgrass (Digitaria sanguinalis), read-out: Visual Growth Reduction (%) 14 Days After Application, DIGSA
[5] = ECHCG: barnyardgrass (Echinochloa crus-galli), read-out: Visual Growth Reduction (%) 14 Days After Application, ECHCG
[6] = ORYSA: rice (Oryza sativa), read-out: Visual Growth Reduction (%) 14 Days After Application, ORYSA
[7] = SETFA: giant foxtail (Setaria faberi), read-out: Visual Growth Reduction (%) 14 Days After Application, SETFA
[8] = SORVU: grain sorghum (Sorghum vulgare), read-out: Visual Growth Reduction (%) 14 Days After Application, SORVU
[9] = TRZSS (wheat, Triticum aestivum), read-out: Visual Growth Reduction (%) 14 Days After Application, TRZSS
[10] = ZEAMX: maize, corn (Zea mays), read-out: Visual Growth Reduction (%) 14 Days After Application, ZEAMX
[11] = ABUTH: velvetleaf (Abutilon theophrasti), read-out: Visual Growth Reduction (%) 14 Days After Application ABUTH
[12] = AMARE: redroot pigweed (Amaranthus retroflexus), read-out: Visual Growth Reduction (%) 14 Days After Application AMARE
[13] = BRSNN: oilseed-rape, canola (Brassica napus), read-out: Visual Growth Reduction (%) 14 Days After Application BRSNN
[14] = CHEAL: lambsquarters (Chenopodium album), read-out: Visual Growth Reduction (%) 14 Days After Application CHEAL
[15] = EPHHL: wild poinsettia (Euphorbia heterophylla), read-out: Visual Growth Reduction (%) 14 Days After Application EPHHL
[16] = HELAN: sunflower (Helianthus annuus), read-out: Visual Growth Reduction (%) 14 Days After Application HELAN
[17] = VIOTR: wild pansy (Viola tricolor), read-out: Visual Growth Reduction (%) 14 Days After Application VIOTR

Nc1cc(-c2c(F)cc(I)c(F)c2F)nc(C(=O)O)c1Cl [Compound 68]
75 to 84%: pest or weed control at 70 g/ha [1, 4] | pest or weed control at 140 g/ha [1, 4] | pest or weed control at 140 g/ha [1, 5] | pest or weed control at 140 g/ha [1, 7] | pest or weed control at 140 g/ha [1, 10]
30 to 44%: pest or weed control at 70 g/ha [1, 9]
170.1 to 172.6 °C: melting point
0 to 29%: pest or weed control at 70 g/ha [1, 10] | pest or weed control at 140 g/ha [2, 16]
60 to 74%: pest or weed control at 70 g/ha [2, 16]
45 to 59%: pest or weed control at 70 g/ha [1, 6] | pest or weed control at 140 g/ha [1, 6] | pest or weed control at 140 g/ha [1, 9]
95 to 100%: pest or weed control at 70 g/ha [1, 3] | pest or weed control at 140 g/ha [1, 3] | pest or weed control at 70 g/ha [1, 8] | pest or weed control at 140 g/ha [1, 8] | pest or weed control at 70 g/ha [2, 12] | pest or weed control at 140 g/ha [2, 12] | pest or weed control at 70 g/ha [2, 13] | pest or weed control at 140 g/ha [2, 13] | pest or weed control at 70 g/ha [2, 14] | pest or weed control at 140 g/ha [2, 14] | pest or weed control at 70 g/ha [2, 15] | pest or weed control at 140 g/ha [2, 15] | pest or weed control at 70 g/ha [2, 17] | pest or weed control at 140 g/ha [2, 17]
85 to 94%: pest or weed control at 70 g/ha [1, 5] | pest or weed control at 70 g/ha [1, 7] | pest or weed control at 70 g/ha [2, 11] | pest or weed control at 140 g/ha [2, 11]
